Laboratory results taken from patent US6432922B1 (Corvas International, Inc., priority 1998, dated 2002).
Read-outs that look alike come from different tables or passages of the source. Non-standard residues stand in square brackets, D forms with d. Residues, ends and D or L forms follow the SMILES beside them. *: point of attachment. Fmoc = O=C(OCC1c2ccccc2-c2ccccc21)*; d(aThr) = C[C@@H](O)[C@@H](N)C(=O)O; cisHyp = O=C(O)[C@@H]1C[C@H](O)CN1; Isovaleryl = CC(C)CC(=O)*; NMeA = CN[C@@H](C)C(=O)O; dDap = NC[C@@H](N)C(=O)O; Aze = O=C(O)[C@@H]1CCN1; Cbz = O=C(OCc1ccccc1)*; Sar = CNCC(=O)O; Moc = COC(=O)*

Key:
Human rt-PA (Activase) = molecular target: T1, Human rt-PA (Activase) (Homo sapiens, UniProt P00750); test: Recombinant tissue plasminogen activator (rt-PA) chromogenic assay; type: biochemical; details: 30 minute preincubation, HBSA buffer; read-out: tPA IC50
T1 construct: purchased Genentech Inc
T1 sequence (P00750 36-562): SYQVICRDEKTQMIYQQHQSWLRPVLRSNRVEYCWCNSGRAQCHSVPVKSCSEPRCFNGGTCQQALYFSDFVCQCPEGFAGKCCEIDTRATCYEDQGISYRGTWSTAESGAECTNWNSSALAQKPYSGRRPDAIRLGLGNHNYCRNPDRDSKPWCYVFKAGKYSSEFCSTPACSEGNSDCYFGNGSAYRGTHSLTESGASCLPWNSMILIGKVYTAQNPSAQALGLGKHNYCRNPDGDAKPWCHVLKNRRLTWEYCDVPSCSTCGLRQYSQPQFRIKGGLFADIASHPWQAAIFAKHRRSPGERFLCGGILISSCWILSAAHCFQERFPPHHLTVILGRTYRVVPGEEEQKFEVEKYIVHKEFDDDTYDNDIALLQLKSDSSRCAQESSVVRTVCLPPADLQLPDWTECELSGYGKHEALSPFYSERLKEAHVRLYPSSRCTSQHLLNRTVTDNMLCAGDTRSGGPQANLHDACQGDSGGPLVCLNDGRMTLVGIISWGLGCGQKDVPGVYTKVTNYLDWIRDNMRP
Experimental: rt-PA catalytic activity was determined using the substrate, Pefachrome t-PA (CH3SO2-D-hexahydrotyrosine-glycyl-L-arginine-p-nitroaniline, obtained from Pentap harm Ltd.). The substrate was made up in deionized water followed by dilution in HBSA prior to the assay in which the final concentration was 500 micromolar (about 3-times Km). Human rt-PA (Activase®) was obtained from Genentech Inc. The enzyme was reconstituted in deionized water and diluted into HBSA prior to the assay in which the final concentration was 1.0 nM.

human plasmin = molecular target: T2, human plasmin (Homo sapiens, UniProt P00747); test: Plasmin chromogenic substrate (S-2366) assay; type: biochemical; details: 30 minute preincubation, HBSA buffer
T2 construct: purchased Enzyme Research Laboratories, Inc
T2 sequence (P00747 581-810 limits assumed): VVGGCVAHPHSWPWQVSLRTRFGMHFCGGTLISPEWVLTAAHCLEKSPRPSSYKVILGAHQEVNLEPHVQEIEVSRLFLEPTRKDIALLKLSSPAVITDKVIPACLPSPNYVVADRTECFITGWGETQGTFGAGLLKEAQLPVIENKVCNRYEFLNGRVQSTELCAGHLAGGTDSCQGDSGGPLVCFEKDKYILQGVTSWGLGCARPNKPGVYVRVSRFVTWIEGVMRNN
T2 sequence (P00747 97-580 partner limits assumed): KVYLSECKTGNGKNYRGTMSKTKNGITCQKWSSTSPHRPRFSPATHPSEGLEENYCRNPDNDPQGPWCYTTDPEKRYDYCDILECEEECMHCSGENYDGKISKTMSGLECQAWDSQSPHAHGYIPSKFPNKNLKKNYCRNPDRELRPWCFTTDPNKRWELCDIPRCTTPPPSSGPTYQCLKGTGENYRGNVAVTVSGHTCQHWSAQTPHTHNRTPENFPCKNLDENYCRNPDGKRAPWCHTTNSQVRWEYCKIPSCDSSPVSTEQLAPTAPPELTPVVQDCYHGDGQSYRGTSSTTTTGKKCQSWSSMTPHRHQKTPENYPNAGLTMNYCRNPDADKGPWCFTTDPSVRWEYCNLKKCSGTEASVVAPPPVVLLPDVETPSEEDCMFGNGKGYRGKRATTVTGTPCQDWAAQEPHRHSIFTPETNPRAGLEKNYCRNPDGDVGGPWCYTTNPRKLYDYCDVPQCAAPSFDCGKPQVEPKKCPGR
Experimental: The substrate was made up in deionized water followed by dilution in HBSA prior to the assay in which the final concentration was 300 micromolar (about 2.5-times Km). Purified human plasmin was obtained from Enzyme Research Laboratories, Inc. The enzyme was diluted into HBSA prior to assay in which the final concentration was 1.0 nM.

Urokinase (Abbokinase) = Urokinase (Abbokinase) (Homo sapiens, UniProt P00749); test: Urokinase chromogenic substrate (S-2444) IC50 assay
Experimental: The buffer used for all assays was HBSA (10 mM HEPES, pH 7.5, 150 mM sodium chloride, 0.1% bovine serum albumin).
The initial velocity of chromogenic substrate hydrolysis was measured by the change in absorbance at 405 nm using a Thermo Max® Kinetic Microplate Reader over a 5 minute period in which less than 5% of the added substrate was utilized.
The assay buffer was HBS (10mM HEPES, 150mM sodium chloride pH 7.4) with 0.1% BSA.

[1] = read-out: uPA IC50, 30 minute preincubation, HBSA buffer

IC50 (Human rt-PA (Activase)) [µM] | IC50 (human plasmin) [µM] | IC50 (Urokinase (Abbokinase)) [µM] | IC50 (Urokinase (Abbokinase); [1]) [µM] | Molecule
> 2.5 | > 2.5 | 0.1 to 0.25 |  | C[C@H](NC(=O)[C@@H](CO)NC(=O)NCC1CCCCC1)C(=O)N[C@H](C=O)CCCNC(=N)N [Compound 37, cyclohexylmethylazacarbonyl-D-seryl-alanyl-argininal]
> 2.5 | > 2.5 | < 0.1 |  | CC(C)OC(=O)N[C@H](CO)C(=O)N[C@@H](C)C(=O)N[C@H](C=O)CCCNC(=N)N [Compound 40, isopropyloxycarbonyl-D-seryl-alanyl-argininal]
> 2.5 | 0.25 to 2.5 |  | < 0.1 | C[C@H](NC(=O)[C@@H](CO)NS(=O)(=O)c1ccccc1)C(=O)N[C@H](C=O)CCCN=C(N)N [Compound 28, Benzenesufonyl-D-Ser-L-Ala-L-Arg-al]
> 2.5 | 0.25 to 2.5 | 0.25 to 2.5 |  | COC(=O)NC[C@@H](NC(=O)OCc1ccccc1)C(=O)N[C@@H](C)C(=O)N[C@H](C=O)CCCNC(=N)N [Compound 43, N-α-benzyloxycarbonyl-N-β-methyloxycarbonyl-D-2,3-diaminopropionyl-alanyl-argininal] (Cbz-[dDap](Moc)-Ala-Arg-aldehyde)
> 2.5 | > 2.5 | 0.25 to 2.5 |  | CC(C)CC(=O)N[C@H](CO)C(=O)N[C@@H](C)C(=O)N[C@H](C=O)CCCNC(=N)N [Compound 39, isovaleryl-D-seryl-alanyl-argininal] (Isovaleryl-[dS]-Ala-Arg-aldehyde)
0.25 to 2.5 | 0.25 to 2.5 | < 0.1 |  | C[C@H](NC(=O)[C@@H](CO)NC(=O)OCc1ccccc1)C(=O)N[C@H](C=O)CCCNC(=N)N [Compound 2, Benzyloxycarbonyl-D-seryl-alanyl-argininal] (Cbz-[dS]-Ala-Arg-aldehyde)
> 2.5 | 0.25 to 2.5 |  | < 0.1 | benzyloxycarbonyl-D-seryl-L-β-cyanoalanine-argininal [Compound 46]
> 2.5 |  | 0.25 to 2.5 |  | C[C@H](NC(=O)[C@H](NC(=O)OCc1ccccc1)[C@H](C)O)C(=O)N[C@H](C=O)CCCNC(=N)N [Compound 22, benzyloxycarbonyl-D-threonyl-alanyl-argininal] (Cbz-[dT]-Ala-Arg-aldehyde)
> 2.5 | 0.25 to 2.5 | < 0.1 |  | C[C@H](NC(=O)[C@@H](CO)NC(=O)OCC1CCCCC1)C(=O)N[C@H](C=O)CCCNC(=N)N [Compound 36, cyclohexylmethyloxycarbonyl-D-seryl-alanyl-argininal]
> 2.5 |  | 0.1 to 0.25 |  | C[C@H](O)[C@@H](NC(=O)OCc1ccccc1)C(=O)N1CCC[C@H]1C(=O)N[C@H](C=O)CCCNC(=N)N [Compound 26, benzyloxycarbonyl-D-threonyl-prolyl-argininal] (Cbz-[dT]-Pro-Arg-aldehyde)
> 2.5 | 0.25 to 2.5 | < 0.1 |  | N=C(N)NCCC[C@@H](C=O)NC(=O)[C@@H]1CCN1C(=O)[C@@H](CO)NC(=O)OCc1ccccc1 [Compound 12, benzyloxycarbonyl-D-seryl-L-azetidine-2-carbonyl-argininal] (Cbz-[dS]-[Aze]-Arg-aldehyde)
> 2.5 | 0.25 to 2.5 | < 0.1 |  | N=C(N)NCCC[C@@H](C=O)NC(=O)[C@@H]1C[C@H](O)CN1C(=O)[C@@H](CO)NC(=O)OCc1ccccc1 [Compound 49, benzyloxycarbonyl-D-seryl-L-cis-4-hydroxyprolyl-argininal] (Cbz-[dS]-[cisHyp]-Arg-aldehyde)
> 2.5 | 0.25 to 2.5 |  | < 0.1 | C[C@H](NC(=O)[C@@H](CO)NS(=O)(=O)Cc1ccccc1)C(=O)N[C@H](C=O)CCCN=C(N)N [Compound 29, Benzylsulfonyl-D-Ser-Ala-Arg-al]
> 2.5 |  | < 0.1 |  | CC1CCC(C(C)C)C(OC(=O)N[C@H](CO)C(=O)N[C@@H](C)C(=O)N[C@H](C=O)CCCNC(=N)N)C1 (single isomer, unassigned; (+)) [Compound 7, (+)menthyloxy-carbonyl-D-seryl-alanyl-argininal]
> 2.5 | 0.25 to 2.5 | 0.1 to 0.25 |  | N=C(N)NCCC[C@@H](C=O)NC(=O)[C@H](CO)NC(=O)[C@@H](CO)NC(=O)OCc1ccccc1 [Compound 45, benzyloxycarbonyl-D-seryl-L-seryl-argininal] (Cbz-[dS]-Ser-Arg-aldehyde)
> 2.5 |  | < 0.1 |  | COC(=O)N[C@H](CO)C(=O)N[C@@H](C)C(=O)N[C@H](C=O)CCCNC(=N)N [Compound 8, methyloxycarbonyl-D-seryl-alanyl-argininal] (Moc-[dS]-Ala-Arg-aldehyde)
 |  | 0.1 to 0.25 |  | C[C@@H](O)[C@@H](NC(=O)OCc1ccccc1)C(=O)N(C)[C@@H](C)C(=O)N[C@H](C=O)CCCNC(=N)N [Compound 25, benzyloxycarbonyl-D-allothreonyl-N-methylalanyl-argininal] (Cbz-[d(aThr)]-[NMeA]-Arg-aldehyde)
 |  | 0.1 to 0.25 |  | C[C@H](NC(=O)[C@@H](C)NC(=O)OCc1ccccc1)C(=O)N[C@H](C=O)CCCNC(=N)N [Compound 21, benzyloxycarbonyl-D-alanyl-alanyl-argininal] (Cbz-[dA]-Ala-Arg-aldehyde)
> 2.5 |  | 0.1 to 0.25 |  | C[C@H](NC(=O)[C@@H](NC(=O)OCc1ccccc1)[C@@H](C)O)C(=O)N[C@H](C=O)CCCNC(=N)N [Compound 20, benzyloxycarbonyl-threonyl-alanyl-argininal] (Cbz-Thr-Ala-Arg-aldehyde)
> 2.5 |  |  | < 0.1 | CC1CCC(C(C)C)C(OC(=O)N[C@H](CO)C(=O)N[C@@H](C)C(=O)N[C@H](C=O)CCCNC(=N)N)C1 (single isomer, unassigned; (-)) [Compound 3, (−)menthyloxy-carbonyl-D-seryl-alanyl-argininal]
> 2.5 |  | 0.25 to 2.5 |  | CN(CC(=O)N[C@H](C=O)CCCNC(=N)N)C(=O)[C@@H](CO)NC(=O)OCc1ccccc1 [Compound 18, benzyloxycarbonyl-D-seryl-sarcosyl-argininal] (Cbz-[dS]-[Sar]-Arg-aldehyde)
> 2.5 |  | < 0.1 |  | C[C@H](NC(=O)[C@@H](CO)NC(=O)OCC1c2ccccc2-c2ccccc21)C(=O)N[C@H](C=O)CCCNC(=N)N [Compound 10, Fluorenylmethyloxycarbonyl-D-seryl-alanyl-argininal] (Fmoc-[dS]-Ala-Arg-aldehyde)
> 2.5 |  | 0.1 to 0.25 |  | CSC[C@H](NC(=O)[C@@H](CO)NC(=O)OCc1ccccc1)C(=O)N[C@H](C=O)CCCNC(=N)N [Compound 15, benzyloxycarbonyl-D-seryl-S-methylcysteinyl-argininal] (Cbz-[dS]-Cys(Me)-Arg-aldehyde)
> 2.5 |  | < 0.1 |  | CCCCC(CC)COC(=O)N[C@H](CO)C(=O)N[C@@H](C)C(=O)N[C@H](C=O)CCCNC(=N)N (stereo partly drawn) [Compound 6, 2-ethylhexyloxy-carbonyl-D-seryl-alanyl-argininal]
> 2.5 |  | < 0.1 |  | CCCCOC(=O)N[C@H](CO)C(=O)N[C@@H](C)C(=O)N[C@H](C=O)CCCNC(=N)N [Compound 9, n-butyloxycarbonyl-D-seryl-alanyl-argininal]
 |  | 0.1 to 0.25 |  | C[C@@H](O)[C@@H](NC(=O)OCc1ccccc1)C(=O)N(C)CC(=O)N[C@H](C=O)CCCNC(=N)N [Compound 24, benzyloxycarbonyl-D-allothreonyl-sarcosyl-argininal] (Cbz-[d(aThr)]-[Sar]-Arg-aldehyde)
> 2.5 |  | 0.25 to 2.5 |  | C[C@H](NC(=O)[C@H](CO)NC(=O)OCc1ccccc1)C(=O)N[C@H](C=O)CCCNC(=N)N [Compound 23, benzyloxycarbonyl-seryl-alanyl-argininal] (Cbz-Ser-Ala-Arg-aldehyde)

Molecule | IC50 (Human rt-PA (Activase)) [µM] | IC50 (human plasmin) [µM] | IC50 (Urokinase (Abbokinase)) [µM] | IC50 (Urokinase (Abbokinase); [1]) [µM]
CC(C)COC(=O)N[C@H](CO)C(=O)N[C@@H](C)C(=O)NC(CCCN=C(N)N)C(=O)C(=O)NCCc1ccccc1 (stereo partly drawn) [Compound 30, i-butoxycarbonyl-D-Ser-Ala-Arg-CO-phenethylamide] | > 2.5 | 0.25 to 2.5 |  | 0.1 to 0.25
N=C(N)NCCCC(C=O)NC(=O)C1CCN1C(=O)C(CO)NS(=O)(=O)c1ccccc1 [Compound 31, benzenesulfonyl-D-seryl-azetidyl-argininal] |  | 0.25 to 2.5 |  | < 0.1
N=C(N)NCCC[C@@H](C=O)NC(=O)[C@@H]1CCCCN1C(=O)[C@@H](CO)NC(=O)OCc1ccccc1 [Compound 13] | > 2.5 |  | 0.1 to 0.25 | 
C[C@H](NC(=O)[C@@H](CO)NC(=O)Oc1ccccc1)C(=O)N[C@H](C=O)CCCNC(=N)N [Compound 5, phenoxycarbonyl-D-seryl-alanyl-argininal] | > 2.5 |  | < 0.1 | 
N=C(N)NCCCC(C=O)NC(=O)CNC(=O)[C@@H](CO)NC(=O)OCc1ccccc1 (some centres unmarked) [Compound 17] | > 2.5 |  | 0.1 to 0.25 | 
CCCC(NC(=O)[C@@H](CO)NC(=O)OCc1ccccc1)C(=O)NC(C=O)CCCNC(=N)N (some centres unmarked) [Compound 16] | > 2.5 |  | 0.1 to 0.25 | 
CC[C@H](NC(=O)[C@@H](CO)NC(=O)OCc1ccccc1)C(=O)N[C@H](C=O)CCCNC(=N)N [Compound 14] | > 2.5 |  | < 0.1 | 
C[C@H](NC(=O)[C@@H](CO)NC(=O)Oc1ccc2ccccc2c1)C(=O)N[C@H](C=O)CCCNC(=N)N [Compound 4, 2-naphthyloxy-carbonyl-D-seryl-alanyl-argininal] | > 2.5 |  | < 0.1 | 
